# Experimental data taken from patent US11591319B2, “Small molecule inducers of autophagy” (Board of Regents, The University of Texas System, priority 2018, dated 2023).
# Biological target: Beclin 1/Bcl-2 interaction (Homo sapiens (Human), UniProt P10415)
# Assay: Beclin 1/Bcl-2 AlphaLISA assay (dose-response)
# Type: binding
# Description: We also developed a high-throughput Beclin 1/Bcl-2 AlphaLISA assay to directly measure the in vitro interaction between Beclin 1 and Bcl-2. AlphaLISA is a bead-based proximity assay that is capable of measuring protein-protein interaction in homogeneous solution.^41 Oxygen singlet molecules are generated by Alpha donor beads upon irradiation at 680 nm and travel to acceptor beads in proximity. […] Thus, a measurable Alpha luminescence signal requires chemical energy transfer between the donor and acceptor beads, and a pair of interacting molecules immobilized on the beads stabilizes bead association to produce measurable Alpha signals.
# We used purified recombinant Beclin 1 and Bcl-2 proteins for AlphaLISA, which were optimized for enhanced solubility and expression. Human Beclin 1 was expressed as a fusion protein with StrepII-SUMO at the N-terminus, and three residues on the aromatic finger of Beclin 1 were mutated (F359D/F360D/W361D) to improve solubility and protein stability.^42 These mutations are in the BARA domain, which is far from the BH3 motif recognized by Bcl-2. A recombinant Bcl-2-binding deficient mutant of Beclin 1 (StrepII-SUMO-Beclin 1^ΔBcl-2BD) was used as a negative control. […] For a normalization control, we included a parallel AlphaLISA assay with purified SUMO protein (with an N-terminal StrepII tag and a C-terminal 6xHis tag). The purpose of a normalization control is to eliminate inner filter (false-positive) hits that reduce luminescence signal by interfering with the AlphaLISA assay in ways that are unrelated to the Beclin 1/Bcl-2 interaction. With the normalization control, the interaction of Beclin 1 and Bcl-2 was measured as follows:
# All AlphaLISA assays were performed in triplicate in a 384-well format with BB buffer (phosphate-buffered saline supplemented with 0.5% BSA and 1 mM DTT). For the Beclin 1/Bcl-2 AlphaLISA, purified StrepII-SUMO-Beclin 1 was incubated with Bcl-2-6xHis proteins at 300 nM and 60 nM, respectively. For internal control AlphaLISA assays, StrepII-SUMO-6xHis protein (internal control) was used at 20 nM. […] Following the initial incubation, Strep-Tactin Alpha donor (AS106D) and anti-6xHis AlphaLISA acceptor beads (AL128M) were added to a final concentration of 40 μg/mL each and incubated at room temperature in the dark for an additional 1 h. All samples were evaluated in triplicate. Alpha signals were measured by an Envision plate reader (Perkin Elmer). Beclin 1/Bcl-2 Alpha signal was normalized with internal control Alpha signal. The normalized value represents the binding activity of Beclin 1 and Bcl-2. The percent activity of a compound was calculated as the following formula: […]
# Protein or peptide concentrations used in dose-response AlphaLISA experiments were as follows: Beclin1/Bcl-2—300 nM/60 nM; SUMO (internal control for Beclin 1/Bcl-2 AlphaLISA)—20 nM; Beclin 1 BH3/Bcl-2—1000 nM/60 nM; Bax BH3/Bcl-2—100 nM/20 nM; Biotin-6xHis (internal control for BH3/Bcl-2 AlphaLISA)—10
# Beclin 1/Bcl-2 interaction, sequence (P10415 1-218): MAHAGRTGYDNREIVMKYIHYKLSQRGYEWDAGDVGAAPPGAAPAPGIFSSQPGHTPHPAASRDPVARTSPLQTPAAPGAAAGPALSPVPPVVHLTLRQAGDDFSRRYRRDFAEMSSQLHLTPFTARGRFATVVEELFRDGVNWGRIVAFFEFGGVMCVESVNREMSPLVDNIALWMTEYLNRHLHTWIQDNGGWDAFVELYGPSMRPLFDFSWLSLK
row,SMILES,IC50
1,CC1=NN(C(=O)c2ccc(Br)cc2)C(c2ccccc2)C1 (centres unmarked) [Lqr-8-296],> 10000 nM
2,CC(C)(C)OC(=O)Nc1ccc(C2=NN(C(=O)c3ccc4c(c3)OCO4)C(c3ccccc3)C2)cc1 (centres unmarked) [Lqr-9-065],6770 nM
3,Cc1ccc(C(=O)N2N=C(c3ccc(NS(C)(=O)=O)cc3)CC2c2ccco2)cc1 (centres unmarked) [lqr-8-177],16200 nM
4,CS(=O)(=O)Nc1ccc(C2=NN(C(=O)c3ccc(Cl)cc3)C(c3ccco3)C2)cc1 (centres unmarked) [lqr-8-180],2760 nM
5,CS(=O)(=O)Nc1ccc(C2=NN(C(=O)c3ccc(F)cc3)C(c3ccco3)C2)cc1 (centres unmarked) [lqr-8-183],12800 nM
6,COc1ccc(C(=O)N2N=C(c3ccc(NS(C)(=O)=O)cc3)CC2c2ccco2)cc1 (centres unmarked) [lqr-8-185],9900 nM
7,CS(=O)(=O)Nc1ccc(C2=NN(C(=O)c3ccc(Br)cc3)C(c3ccco3)C2)cc1 (centres unmarked) [lqr-8-186],2420 nM
8,CS(=O)(=O)Nc1ccc(C2=NN(C(=O)c3ccc([N+](=O)[O-])cc3)C(c3ccco3)C2)cc1 (centres unmarked) [lqr-8-188],1680 nM
9,CS(=O)(=O)Nc1ccc(C2=NN(C(=O)c3ccc(C(F)(F)F)cc3)C(c3ccco3)C2)cc1 (centres unmarked) [lqr-8-189],2790 nM
10,CS(=O)(=O)Nc1ccc(C2=NN(C(=O)c3ccc(C#N)cc3)C(c3ccco3)C2)cc1 (centres unmarked) [lqr-8-190],7230 nM
11,CS(=O)(=O)Nc1ccc(C2=NN(C(=O)c3ccc(I)cc3)C(c3ccco3)C2)cc1 (centres unmarked) [lqr-8-196],2140 nM
12,Cc1ccc(C(=O)N2N=C(c3ccc(NC(=O)OC(C)(C)C)cc3)CC2c2ccco2)cc1 (centres unmarked) [lqr-8-203],2880 nM
13,CCNc1ccc(C2=NN(C(=O)c3ccc(C)cc3)C(c3ccco3)C2)cc1 (centres unmarked) [lqr-8-219],29800 nM
14,CC(C)(C)OC(=O)Nc1ccc(C2=NN(C(=O)c3ccc(Br)cc3)C(c3ccco3)C2)cc1 (centres unmarked) [lqr-8-231],982 nM
15,CC(C)(C)OC(=O)Nc1ccc(C2=NN(C(=O)c3ccc([N+](=O)[O-])cc3)C(c3ccco3)C2)cc1 (centres unmarked) [lqr-8-233],1240 nM
16,COC(=O)Nc1ccc(C2=NN(C(=O)c3ccc(C)cc3)C(c3ccco3)C2)cc1 (centres unmarked) [lqr-8-235],1800 nM
17,Cc1ccc(C(=O)N2N=C(c3ccc(NS(C)(=O)=O)cc3)CC2c2ccccc2)cc1 (centres unmarked) [lqr-8-238],905 nM
18,Cc1ccc(C(=O)N2N=C(c3ccc(NS(C)(=O)=O)cc3)CC2c2ccc(Br)cc2)cc1 (centres unmarked) [lqr-8-267],13900 nM
19,Cc1ccc(C(=O)N2N=C(c3ccc(NS(C)(=O)=O)cc3)CC2c2ccccc2Br)cc1 (centres unmarked) [lqr-8-269],9830 nM
20,Cc1ccc(C(=O)N2N=C(c3ccc(NS(C)(=O)=O)cc3)CC2c2ccc(C)cc2)cc1 (centres unmarked) [lqr-8-275],14200 nM
21,CC(C)(C)OC(=O)Nc1ccc(C2=NN(C(=O)c3ccc(Br)cc3)C(c3ccccc3)C2)cc1 (centres unmarked) [lqr-8-278],274 nM
22,CC(C)(C)OC(=O)Nc1ccc(C2=NN(C(=O)c3ccc([N+](=O)[O-])cc3)C(c3ccccc3)C2)cc1 (centres unmarked) [lqr-8-279],349 nM
23,CC(C)(C)OC(=O)Nc1ccc(C2=NN(C(=O)c3ccc(Br)cc3)C(c3ccc(Br)o3)C2)cc1 (centres unmarked) [lqr-8-302],2680 nM
24,O=C(c1ccc(Br)cc1)N1N=C(c2ccco2)CC1c1ccccc1 (centres unmarked) [lqr-8-309],> 10000 nM

row,SMILES,IC50
1,O=C(c1ccc(Br)cc1)N1N=C(c2ccc[nH]2)CC1c1ccccc1 (centres unmarked) [lqr-8-310],> 10000 nM
2,COC(=O)Nc1ccc(C2=NN(C(=O)c3ccc(Br)cc3)C(c3ccccc3)C2)cc1 (centres unmarked) [lqr-9-008],10000 nM
3,CC(C)(C)OC(=O)Nc1ccc(-c2cc(-c3ccccc3)[nH]n2)cc1 [lqr-9-012],> 10000 nM
4,CC(C)(C)OC(=O)Nc1ccc(-c2cc(-c3ccccc3)n(C(=O)c3ccc(Br)cc3)n2)cc1 [lqr-9-013],> 10000 nM
5,CC(C)(C)OC(=O)n1cccc1C1=NN(C(=O)c2ccc(Br)cc2)C(c2ccccc2)C1 (centres unmarked) [lqr-9-018],> 10000 nM
6,CCC1CC(c2ccc(NC(=O)OC(C)(C)C)cc2)=NN1C(=O)c1ccc(Br)cc1 (centres unmarked) [lqr-9-026],13000 nM
7,CC(C)(C)OC(=O)Nc1ccc(C2=NN(C(=O)c3ccc(Br)cc3)C(c3ccccn3)C2)cc1 (centres unmarked) [lqr-9-033],455 nM
8,CC(C)(C)OC(=O)Nc1ccc(C2=NN(C(=O)c3ccc(Br)cc3)C(c3cccnc3)C2)cc1 (centres unmarked) [lqr-9-044],1800 nM
9,CC(C)(C)OC(=O)Nc1ccc(C2=NN(C(=O)c3ccc(Br)cc3)C(c3ccncc3)C2)cc1 (centres unmarked) [lqr-9-046],3000 nM
10,CC(C)(C)OC(=O)Nc1ccc(C2=NN(C(=O)c3ccc(Br)cc3)C(c3ccoc3)C2)cc1 (centres unmarked) [lqr-9-048],4100 nM
11,CC(C)(C)OC(=O)Nc1cccc(C2=NN(C(=O)c3ccc(Br)cc3)C(c3ccccc3)C2)c1 (centres unmarked) [lqr-9-055],12000 nM
12,CC(C)(C)OC(=O)Nc1ccc(C2=NN(C(=O)OC(C)(C)C)C(c3ccccc3)C2)cc1 (centres unmarked) [lqr-9-056],> 10000 nM
13,O=C=Nc1ccc(C2=NN(C(=O)c3ccc(Br)cc3)C(c3ccccc3)C2)cc1 (centres unmarked) [lqr-9-068],> 10000 nM
14,CC(C)NC(=O)Nc1ccc(C2=NN(C(=O)c3ccc(Br)cc3)C(c3ccccc3)C2)cc1 (centres unmarked) [lqr-9-076],349 nM
15,CC(C)NC(=O)Nc1ccc(C2=NN(C(=O)c3ccc(Br)cc3)C(c3ccccc3)C2)cc1 (centres unmarked) [lqr-9-085],63 nM
16,O=C1OCCN1c1ccc(C2=NN(C(=O)c3ccc(Br)cc3)C(c3ccccc3)C2)cc1 (centres unmarked) [lqr-9-088],5140 nM
17,CC(C)(C)NC(=O)Nc1ccc(C2=NN(C(=O)c3ccc(Br)cc3)C(c3ccccc3)C2)cc1 (centres unmarked) [lqr-9-118],9100 nM
18,CNC(=O)Nc1ccc(C2=NN(C(=O)c3ccc(Br)cc3)C(c3ccccc3)C2)cc1 (centres unmarked) [lqr-9-121],5520 nM
19,CC(C)COC(=O)Nc1ccc(C2=NN(C(=O)c3ccc(Br)cc3)C(c3ccccc3)C2)cc1 (centres unmarked) [lqr-9-155],184 nM
20,C=CCOC(=O)Nc1ccc(C2=NN(C(=O)c3ccc(Br)cc3)C(c3ccccc3)C2)cc1 (centres unmarked) [lqr-9-156],< 156 nM
21,CCOC(=O)Nc1ccc(C2=NN(C(=O)c3ccc(Br)cc3)C(c3ccccc3)C2)cc1 (centres unmarked) [lqr-9-157],< 156 nM
22,CN(C)C(=O)Nc1ccc(C2=NN(C(=O)c3ccc(Br)cc3)C(c3ccccc3)C2)cc1 (centres unmarked) [lqr-9-158],2390 nM
23,O=C(Nc1ccc(C2=NN(C(=O)c3ccc(Br)cc3)C(c3ccccc3)C2)cc1)OC1CC1 (centres unmarked) [lqr-9-161],< 156 nM
